Peptide text beside a SMILES is read from it.
How the values were obtained:
[1] = test system: Aβ in the cerebrum; assay: Intraperitoneal administration to mouse, Aβ in cerebrum; format: in vivo; conditions: 150 mg/kg intraperitoneally, three consecutive days, wild-type mice
Procedure: 150 mg/kg #4 polypeptide dissolved in DMSO was intraperitoneally administered to ten wild-type mice (C57 BL/6 N Cr Slc, seven weeks old). The administration was conducted for three consecutive days. Four days after, the mice were euthanized to extract the cerebrum.
The extracted cerebrums were dissolved by using a known method, subjected to immunoprecipitation with anti-4G8 antibody, and then subjected to Western blotting using the anti-mouse Aβ antibody. An experiment was conducted in the same manner except that only DMSO was administered as the negative control experiment group (ten mice).
In the Western blotting, an experiment was conducted using 5, 10, 50, 100, and 200 pg rodent-originated Aβ as the standard reference material. FIG. 10(A−1) and […] show the results.

[2] = test system: Aβ protein in hippocampus; assay: Aβ protein production inhibition after direct administration in mouse hippocampus; format: in vivo; conditions: C57BL/6 mouse, 0.2 ng/g directly in right-side hippocampus, three hours after administration, relative to rev#4
Procedure: A #4 polypeptide solution using 50% DMSO as a solvent was administered to a C57BL/6 mouse in an amount of 0.2 ng/g. The solution was directly administered in the right-side hippocampus of the mouse. Three hours after administration, the right-side hippocampus was extracted, and the amount of Aβ protein extracted by TBS and 6M guanidine hydrochloride was measured by using the sandwich ELISA method (product name: human/rat β amyloid (40) ELISA Kit Wako for immunochemistry, product No. 294-62501; product name: human/rat β amyloid (42) ELISA Kit Wako for immunochemistry, product No. 290-62501: both manufactured by Wako Pure Chemical Industries, Ltd.). As a negative control experiment, a polypeptide (rev#4: SEQ ID NO: 19) having the amino acid sequence in inverse order of #4 polypeptide was administered to the left-side hippocampus of the same mouse.
FIG. 9 is a graph showing the Aβ protein extracted from the mouse was quantified. The vertical axis indicates the relative value taking the result of negative control experiment in which rev#4 polypeptide was administered as 100%.

[3] = test system: CHO-K1 cells (7WD10 cells) that stably expressed APP protein; assay: Aβ protein production inhibition experiment in 7WD10 cells (sAPPβ, βCTF, Aβ); format: cell-based; conditions: polypeptide 1, 5, 10, 20, and 50 μM
Procedure: An experiment was conducted wherein #1, #2, and #4 polypeptides were reacted with CHO-K1 cells (7WD10 cells) that stably expressed APP protein and transiently expressed Notch to confirm the production of Aβ protein and cleavage of Notch protein.

[4] = target: T1, APP in 7WD10 cells overexpressing APP (Homo sapiens, UniProt P05067); assay: Analysis of subcellular distribution in 7WD10 cells; format: cell-based; conditions: Biotin-modified #4 polypeptide
T1 construct: expressed in transfected cells; host or cells: 7WD10
Procedure: Biotin-modified #4 polypeptide was prepared using a known method. This polypeptide was allowed to react with CHO-K1 cells and the 7WD10 cells mentioned above, and the resulting cells were immobilized, and then treated with Triton X-100. Thereafter, avidin-modified Alexa488 was reacted with the above. As the negative control experiment, an experiment was conducted reacting avidin-modified Alexa 488 in place of Biotin-modified #4 polypeptide.

With CC[C@H](C)[C@H](NC(=O)[C@H](CC(=O)O)NC(=O)[C@@H](NC(=O)[C@@H](NC(=O)[C@H](CS)NC(=O)[C@H](Cc1ccc(O)cc1)NC(=O)[C@H](CS)NC(=O)[C@H](CC(=O)O)NC(=O)[C@H](CS)NC(=O)[C@@H](NC(=O)[C@@H](NC(=O)[C@H](CC(C)C)NC(=O)[C@H](Cc1c[nH]cn1)NC(=O)[C@H](CCSC)NC(C)=O)C(C)C)[C@@H](C)CC)[C@@H](C)O)[C@@H](C)O)C(=O)N[C@@H](CS)C(=O)N[C@@H](Cc1ccc(O)cc1)C(=O)N[C@@H](CS)C(=O)N[C@@H](Cc1ccc(O)cc1)C(=O)N[C@@H](CO)C(=O)N[C@@H](CS)C(=O)N[C@H](C(=O)N1CCC[C@H]1C(=O)N[C@@H](CC(N)=O)C(N)=O)[C@@H](C)O [#4] (Ac-MHLVICDCYCTTDICYCYSCTPN-NH2) the “Aβ production inhibition (bands quantified with densitometry)” value [1] was “excellent Aβ production inhibition effect”, the “bands indicating Aβ in the cerebrum (Western blotting)” value ([1]; compared to DMSO) was “the number of bands indicating Aβ was reduced” and the “Aβ protein production in hippocampus (sandwich ELISA)” value [2] was “remarkably inhibited Aβ protein production”. The “Aβ protein in the cell culture medium (released Aβ)” value [3] was “decreased depending on the concentration”, the “Aβ protein in the cell lysate (intracellular Aβ)” value [3] was “no longer present in a manner dependent on the final concentration” and the “sAPP in the cell lysate” value [3] was “no longer present in a manner dependent on the final concentration”. For the same compound, the “βCTF (C99) in the cell lysate” value [3] was “no longer present in a manner dependent on the final concentration”, the entry into cells ([4]; CHO-K1 and 7WD10 cells) was “entering the cells” and the “binding to intracellular APP” value ([4]; avidin-modified Alexa488, 7WD10 cells overexpressing APP) was “remarkably binded also to the intracellular APP”.
